The IC50 is the midpoint of a concentration-inhibition curve. Low readings indicate inhibition by little substance, high ones a need for much substance.

The experiment deals with human muscarinic acetylcholine M3 receptor (M3-ACh) (Homo sapiens, UniProt P20309). Nature of the experiment: biochemical. It counts as binding.
[1] abbreviates: pIC50 of comparative compounds containing a cyclooctyl (C8) ring in place of cycloheptyl (C7).
Where [2] appears, read: pIC50 of comparative compounds containing a cyclopentyl (C5) ring in place of cycloheptyl (C7).

Sequence of human muscarinic acetylcholine M3 receptor (M3-ACh) (P20309 whole entry): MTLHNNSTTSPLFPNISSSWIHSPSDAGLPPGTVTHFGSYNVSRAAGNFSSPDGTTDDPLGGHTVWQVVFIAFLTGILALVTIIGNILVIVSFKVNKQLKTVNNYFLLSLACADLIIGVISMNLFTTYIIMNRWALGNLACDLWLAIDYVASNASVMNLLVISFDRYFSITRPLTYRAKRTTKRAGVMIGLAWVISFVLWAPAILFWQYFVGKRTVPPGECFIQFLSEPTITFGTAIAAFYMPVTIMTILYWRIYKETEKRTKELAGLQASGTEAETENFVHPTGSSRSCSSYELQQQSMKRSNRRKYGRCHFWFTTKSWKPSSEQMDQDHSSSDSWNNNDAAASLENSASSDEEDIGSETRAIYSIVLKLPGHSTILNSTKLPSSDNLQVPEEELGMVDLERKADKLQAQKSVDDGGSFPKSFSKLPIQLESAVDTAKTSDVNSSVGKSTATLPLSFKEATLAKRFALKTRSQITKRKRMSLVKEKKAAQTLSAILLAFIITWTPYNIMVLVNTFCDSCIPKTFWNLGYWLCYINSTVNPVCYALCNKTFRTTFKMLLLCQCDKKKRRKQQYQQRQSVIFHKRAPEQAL

Take `O=C(C[N+]12CCC(CC1)[C@@H](OC(=O)C1(c3ccccc3)CCCCCC1)C2)NCCCc1ccccc1` [Example 37, (3R)-1-{2-Oxo-2-[(3-phenylpropyl)amino]ethyl}-3-{[(1-phenylcycloheptyl)carbonyl]oxy}-1-azoniabicyclo[2.2.2]octane Bromide]: the IC50 (M3 binding IC50) is 2 to 10 nM.

For the compound `O=C(O[C@H]1C[N+]2(Cc3ccc(C(F)(F)F)o3)CCC1CC2)C1(c2ccccc2)CCCCCC1` [Example 9, (3R)-3-{[(1-Phenylcycloheptyl)carbonyl]oxy}-1-{[5-(trifluoromethyl)-2-furyl]methyl}-1-azoniabicyclo[2.2.2]octane Bromide], for the setting “M3 binding IC50”, the IC50 is more than 10 nM.

As to `O=C1c2ccccc2C(=O)N1CC[N+]12CCC(CC1)[C@@H](OC(=O)C1(c3ccccc3)CCCCCC1)C2` [Example 30, (3R)-1-[2-(1,3-Dioxo-1,3-dihydro-2H-isoindol-2-yl)ethyl]-3-{[(1-phenylcycloheptyl)carbonyl]oxy}-1-azoniabicyclo[2.2.2]octane Bromide], the IC50 (M3 binding IC50) was more than 10 nM. Take `N#Cc1ccc(CC[N+]23CCC(CC2)[C@@H](OC(=O)C2(c4ccccc4)CCCCCC2)C3)cc1` [Example 29, (3R)-1-[2-(4-Cyanophenyl)ethyl]-3-{[(1-phenylcycloheptyl)carbonyl]oxy}-1-azoniabicyclo[2.2.2]octane Bromide]: for the setting “M3 binding IC50”, the IC50 fell in the range of 2 to 10 nM. `NC(=O)C[N+]12CCC(CC1)[C@@H](OC(=O)C1(c3ccccc3)CCCCCC1)C2` [Example 36, (3R)-1-(2-Amino-2-oxoethyl)-3-{[(1-phenylcycloheptyl)carbonyl]oxy}-1-azoniabicyclo[2.2.2]octane Bromide] had an IC50 (M3 binding IC50) of less than 2 nM.

With `COc1cccc(CC[N+]23CCC(CC2)[C@@H](OC(=O)C2(c4ccccc4)CCCCCC2)C3)c1` [Example 24, (3R)-1-[2-(3-Methoxyphenyl)ethyl]-3-{[(1-phenylcycloheptyl)carbonyl]oxy}-1-azoniabicyclo[2.2.2]octane Bromide], under “M3 binding IC50”, the IC50 was less than 2 nM. The same measure, in the same setting: for `O=C(O[C@H]1C[N+]2(Cc3ccc(F)cc3)CCC1CC2)C1(c2ccccc2)CCCCCC1` [Example 5, (3R)-1-(4-Fluorobenzyl)-3-{[(1-phenylcycloheptyl)carbonyl]oxy}-1-azoniabicyclo[2.2.2]octane Bromide] the value was more than 10 nM; for `O=C(C[N+]12CCC(CC1)[C@@H](OC(=O)C1(c3ccccc3)CCCCCC1)C2)Nc1ccc(Cl)nn1` [Example 21, (3R)-1-{2-[(6-Chloropyridazin-3-yl)amino]-2-oxoethyl}-3-{[(1-phenylcycloheptyl)carbonyl]oxy}-1-azoniabicyclo[2.2.2]octane Bromide], less than 2 nM. For `O=C(C[N+]12CCC(CC1)[C@@H](OC(=O)C1(c3ccccc3)CCCCCCC1)C2)Nc1cnccn1` [compound 9, (3R)-1-[2-Oxo-2-(pyrazin-2-ylamino)ethyl]-3-{[(1-phenylcyclooctyl)carbonyl]oxy}-1-azoniabicyclo[2.2.2]octane Bromide, reference compound], the IC50 under setting [1] was 0.316 nM. For the setting “M3 binding IC50”, `O=C(C[N+]12CCC(CC1)[C@@H](OC(=O)C1(c3cccs3)CCCCCC1)C2)Nc1ccon1` [Example 13, (3R)-1-[2-(Isoxazol-3-ylamino)-2-oxoethyl]-3-({[1-(2-thienyl)cycloheptyl]carbonyl}oxy)-1-azoniabicyclo[2.2.2]octane Bromide] displayed an IC50 of less than 2 nM.

`C[N+]12CCC(CC1)[C@@H](OC(=O)C1(c3ccccc3)CCCCCCC1)C2` [compound 8, (3R)-1-Methyl-3-{[(1-phenylcyclooctyl)carbonyl]oxy}-1-azoniabicyclo[2.2.2]octane Iodide, reference compound] gave an IC50 under setting [1] of 39.8 nM. In turn, `O=C(O[C@H]1C[N+]2(CC3(c4ccc(Cl)cc4)CC3)CCC1CC2)C1(c2ccccc2)CCCCCC1` [Example 32, (3R^5)-1-{[1-(4-Chlorophenyl)cyclopropyl]methyl}-3-{[(1-phenylcycloheptyl)carbonyl]oxy}-1-azoniabicyclo[2.2.2]octane Bromide] returned an IC50 (M3 binding IC50) of 2 to 10 nM.

Where the note is “M3 binding IC50”, `Cc1cc(NC(=O)C[N+]23CCC(CC2)[C@@H](OC(=O)C2(c4ccccc4)CCCCCC2)C3)no1` [Example 20, (3R)-1-{2-[(5-Methylisoxazol-3-yl)amino]-2-oxoethyl}-3-{[(1-phenylcycloheptyl)carbonyl]oxy}-1-azoniabicyclo[2.2.2]octane Bromide] had an IC50 of less than 2 nM. The same measure, in the same setting: for `O=C(O[C@H]1C[N+]2(CCc3ccc4ccccc4c3)CCC1CC2)C1(c2ccccc2)CCCCCC1` [Example 23, (3R)-1-[2-(2-Naphthyl)ethyl]-3-{[(1-phenylcycloheptyl)carbonyl]oxy}-1-azoniabicyclo[2.2.2]octane Bromide] the value was less than 2 nM; for `O=C(O[C@H]1C[N+]2(CCc3cccc(Cl)c3)CCC1CC2)C1(c2ccccc2)CCCCCC1` [Example 35, (3R)-1-[2-(3-Chlorophenyl)ethyl]-3-{[(1-phenylcycloheptyl)carbonyl]oxy}-1-azoniabicyclo[2.2.2]octane bromide], less than 2 nM. `COc1cccc(C[N+]23CCC(CC2)[C@@H](OC(=O)C2(c4ccccc4)CCCCCC2)C3)c1` [Example 10, (3R)-1-(3-Methoxybenzyl)-3-{[(1-phenylcycloheptyl)carbonyl]oxy}-1-azoniabicyclo[2.2.2]octane Bromide] had an IC50 (M3 binding IC50) of 2 to 10 nM and an IC50 (pIC50) of 3.16 nM. Where the note is “M3 binding IC50”, `O=C(O[C@H]1C[N+]2(Cc3ccccc3)CCC1CC2)C1(c2ccccc2)CCCCCC1` [Example 6, (3R)-1-Benzyl-3-{[(1-phenylcycloheptyl)carbonyl]oxy}-1-azoniabicyclo[2.2.2]octane Bromide] displayed an IC50 of more than 10 nM. On to `C[N+]12CCC(CC1)[C@@H](OC(=O)C1(c3ccccc3)CCCCCC1)C2` [Example 2, (3R)-1-Methyl-3-{[(1-phenylcycloheptyl)carbonyl]oxy}-1-azoniabicyclo[2.2.2]octane Iodide], for which the 50% inhibitory concentration (IC50) runs as follows: (M3 binding IC50) 2 to 10 nM; (pIC50) 3.16 nM; (pIC50 of cycloheptyl (C7) compound) 3.16 nM.

Where the note is “M3 binding IC50”, `O=C(O[C@H]1C[N+]2(CCOc3ccccc3)CCC1CC2)C1(c2ccccc2)CCCCCC1` [Example 11, (3R)-1-(2-Phenoxyethyl)-3-{[(1-phenylcycloheptyl)carbonyl]oxy}-1-azoniabicyclo[2.2.2]octane bromide] returned an IC50 of less than 2 nM.

`C[N+]12CCC(CC1)[C@@H](OC(=O)C1(c3ccccc3)CCCC1)C2` [Comparative Example 2, (3R)-1-Methyl-3-{[(1-phenylcyclopentyl)carbonyl]oxy}-1-azoniabicyclo[2.2.2]octane Iodide, reference compound]: the IC50 under setting [2] is 39.8 nM.

For the compound `O=C(C[N+]12CCC(CC1)[C@@H](OC(=O)C1(c3ccccc3)CCCCC1)C2)Nc1cnccn1` [compound 6, (3R)-1-[2-Oxo-2-(pyrazin-2-ylamino)ethyl]-3-{[(1-phenylcyclohexyl)carbonyl]oxy}-1-azoniabicyclo[2.2.2]octane Bromide, reference compound], 0.2 nM corresponded to half-maximal inhibition (pIC50 of comparative compounds containing a cyclohexyl (C6) ring in place of cycloheptyl (C7)) (IC50).

On to `O=C(O[C@H]1C[N+]2(Cc3ccc(F)c(F)c3)CCC1CC2)C1(c2ccccc2)CCCCCC1` [Example 8, (3R)-1-(3,4-Difluorobenzyl)-3-{[(1-phenylcycloheptyl)carbonyl]oxy}-1-azoniabicyclo[2.2.2]octane Bromide], for which the IC50 (M3 binding IC50) is more than 10 nM. In turn, `O=C(C[N+]12CCC(CC1)[C@@H](OC(=O)C1(c3ccccc3)CCCCCC1)C2)NCCOc1ccccc1` [Example 18, (3R)-1-{2-Oxo-2-[(2-phenoxyethyl)amino]ethyl}-3-{[(1-phenylcycloheptyl)carbonyl]oxy}-1-azoniabicyclo[2.2.2]octane Bromide] had an IC50 (M3 binding IC50) of less than 2 nM.

`O=C(C[N+]12CCC(CC1)[C@@H](OC(=O)C1(c3ccccc3)CCCCCC1)C2)N1CCOCC1` [Example 15, (3R)-1-(2-Morpholin-4-yl-2-oxoethyl)-3-{[(1-phenylcycloheptyl)carbonyl]oxy}-1-azoniabicyclo[2.2.2]octane Bromide] yielded an IC50 (M3 binding IC50) of 2 to 10 nM. The same measure, in the same setting: for `Cc1ccc(CC[N+]23CCC(CC2)[C@@H](OC(=O)C2(c4ccccc4)CCCCCC2)C3)s1` [Example 25, (3R)-1-[2-(5-Methyl-2-thienyl)ethyl]-3-{[(1-phenylcycloheptyl)carbonyl]oxy}-1-azoniabicyclo[2.2.2]octane Bromide] the value was less than 2 nM; for `O=C(O[C@H]1C[N+]2(Cc3cccc(OC(F)(F)F)c3)CCC1CC2)C1(c2ccccc2)CCCCCC1` [Example 7, (3R)-3-{[(1-Phenylcycloheptyl)carbonyl]oxy}-1-[3-(trifluoromethoxy)benzyl]-1-azoniabicyclo[2.2.2]octane Bromide], more than 10 nM. `O=C(C[N+]12CCC(CC1)[C@@H](OC(=O)C1(c3ccccc3)CCCCCC1)C2)c1cccc(F)c1` [Example 19, (3R)-1-[2-(3-Fluorophenyl)-2-oxoethyl]-3-{[(1-phenylcycloheptyl)carbonyl]oxy}-1-azoniabicyclo[2.2.2]octane Bromide] returned an IC50 (M3 binding IC50) of less than 2 nM.

`O=C(C[N+]12CCC(CC1)[C@@H](OC(=O)C1(c3ccccc3)CCCCCC1)C2)N1CCCC1` [Example 14, (3R)-1-(2-Oxo-2-pyrrolidin-1-ylethyl)-3-{[(1-phenylcycloheptyl)carbonyl]oxy}-1-azoniabicyclo[2.2.2]octane Bromide]: for the setting “M3 binding IC50”, the IC50 lay in the range of 2 to 10 nM. Take `O=C(C[N+]12CCC(CC1)[C@@H](OC(=O)C1(c3ccccc3)CCCC1)C2)Nc1cnccn1` [compound 3, (3R)-1-[2-Oxo-2-(pyrazin-2-ylamino)ethyl]-3-{[(1-phenylcyclopentyl)carbonyl]oxy}-1-azoniabicyclo[2.2.2]octane Bromide, reference compound]: under setting [2], the IC50 is 0.316 nM. `O=C(C[N+]12CCC(CC1)[C@@H](OC(=O)C1(c3ccccc3)CCCCCC1)C2)Nc1cccc(F)c1` [Example 22, (3R)-1-{2-[(3-Fluorophenyl)amino]-2-oxoethyl}-3-{[(1-phenylcycloheptyl)carbonyl]oxy}-1-azoniabicyclo[2.2.2]octane Bromide]: under “M3 binding IC50”, the IC50 is less than 2 nM.
